Experimental data reported in patent US20240409574A1, “SMALL MOLECULES FOR DOT1L DEGRADATION AND USES THEREOF” (DANA-FARBER CANCER INSTITUTE, INC., priority 2021, published 2024).

Experiments:
MV411 cells = experiment: Cell proliferation assay in MV411 cells (trypan blue cell counts); format: cell-based, human; conditions: FIG. 5B, 10B
Procedure: Example 16: Cell Proliferation Assays in MV411 (Human Myelomonocytic Leukemia) Cells with Inventive Bifunctional Compounds
(§1) MV411 cells were seeded into a 6-well plate at a density of 0.25×10^6 cells/well and then treated compounds with indicated concentration and incubated for the indicated times. After staining with trypan blue, cell counts were performed using a Countess® II FL Automated Cell Counter (ThermoFisher Scientific).

DOT1L [1] = biological target: T1, DOT1L (Homo sapiens, UniProt Q8TEK3); experiment: Western blot of DOT1L degradation in MV411 cells; format: cell-based; parameters: endogenous in cells; conditions: FIG. 5A, 10A
Target sequence in this assay (Q8TEK3 whole entry): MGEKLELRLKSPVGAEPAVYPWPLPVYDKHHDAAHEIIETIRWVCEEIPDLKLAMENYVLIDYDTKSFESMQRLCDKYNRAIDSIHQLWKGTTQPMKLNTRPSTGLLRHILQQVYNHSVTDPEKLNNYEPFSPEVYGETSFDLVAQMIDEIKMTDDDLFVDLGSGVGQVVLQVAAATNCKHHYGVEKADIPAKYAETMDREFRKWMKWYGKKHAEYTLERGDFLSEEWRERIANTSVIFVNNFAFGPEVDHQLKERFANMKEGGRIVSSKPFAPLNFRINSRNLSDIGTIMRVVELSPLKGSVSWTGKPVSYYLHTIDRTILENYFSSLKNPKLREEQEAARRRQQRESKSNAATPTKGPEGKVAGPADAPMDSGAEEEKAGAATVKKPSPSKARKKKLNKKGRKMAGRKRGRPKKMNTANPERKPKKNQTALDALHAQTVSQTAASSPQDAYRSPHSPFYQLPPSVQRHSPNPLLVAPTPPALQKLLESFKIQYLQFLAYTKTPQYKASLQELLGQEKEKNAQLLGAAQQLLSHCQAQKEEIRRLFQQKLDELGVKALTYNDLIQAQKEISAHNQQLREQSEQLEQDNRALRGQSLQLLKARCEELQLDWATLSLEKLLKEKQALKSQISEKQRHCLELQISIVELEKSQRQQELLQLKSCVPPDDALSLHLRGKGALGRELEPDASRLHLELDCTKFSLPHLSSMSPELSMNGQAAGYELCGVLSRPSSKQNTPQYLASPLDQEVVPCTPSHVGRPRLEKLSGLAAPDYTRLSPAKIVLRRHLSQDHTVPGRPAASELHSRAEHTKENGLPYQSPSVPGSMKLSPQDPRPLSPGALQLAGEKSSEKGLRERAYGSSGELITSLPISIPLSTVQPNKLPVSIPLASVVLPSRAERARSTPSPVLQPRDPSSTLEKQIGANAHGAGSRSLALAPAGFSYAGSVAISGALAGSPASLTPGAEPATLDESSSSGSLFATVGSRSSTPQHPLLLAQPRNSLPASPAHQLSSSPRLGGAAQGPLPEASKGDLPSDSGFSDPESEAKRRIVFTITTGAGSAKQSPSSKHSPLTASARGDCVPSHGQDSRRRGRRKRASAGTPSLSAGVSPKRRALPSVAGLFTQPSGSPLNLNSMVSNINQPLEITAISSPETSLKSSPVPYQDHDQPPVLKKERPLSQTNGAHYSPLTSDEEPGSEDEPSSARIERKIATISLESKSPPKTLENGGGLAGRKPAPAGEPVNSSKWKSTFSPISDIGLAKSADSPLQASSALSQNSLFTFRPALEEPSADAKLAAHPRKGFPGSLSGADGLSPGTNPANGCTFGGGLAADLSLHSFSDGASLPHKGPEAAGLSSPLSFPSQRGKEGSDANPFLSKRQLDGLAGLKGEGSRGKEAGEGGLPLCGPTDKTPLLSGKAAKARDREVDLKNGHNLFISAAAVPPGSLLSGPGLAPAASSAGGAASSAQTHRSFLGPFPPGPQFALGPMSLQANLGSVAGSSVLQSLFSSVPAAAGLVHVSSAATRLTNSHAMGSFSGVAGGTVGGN
DOT1L:CRBN = DOT1L:CRBN (Homo sapiens, UniProt Q8TEK3+Q96SW2); experiment: DOT1L:CRBN-DDB1 dimerization assay (AlphaScreen); format: binding; conditions: FIG. 2, GST-CRBN-DDB1 and 6xHIS DOT1L 125 nM
Sequence of DOT1L:CRBN (Q8TEK3 whole entry, species assumed): as the sequence (Q8TEK3 whole entry) above
Sequence of DOT1L:CRBN (Q96SW2 whole entry, species assumed): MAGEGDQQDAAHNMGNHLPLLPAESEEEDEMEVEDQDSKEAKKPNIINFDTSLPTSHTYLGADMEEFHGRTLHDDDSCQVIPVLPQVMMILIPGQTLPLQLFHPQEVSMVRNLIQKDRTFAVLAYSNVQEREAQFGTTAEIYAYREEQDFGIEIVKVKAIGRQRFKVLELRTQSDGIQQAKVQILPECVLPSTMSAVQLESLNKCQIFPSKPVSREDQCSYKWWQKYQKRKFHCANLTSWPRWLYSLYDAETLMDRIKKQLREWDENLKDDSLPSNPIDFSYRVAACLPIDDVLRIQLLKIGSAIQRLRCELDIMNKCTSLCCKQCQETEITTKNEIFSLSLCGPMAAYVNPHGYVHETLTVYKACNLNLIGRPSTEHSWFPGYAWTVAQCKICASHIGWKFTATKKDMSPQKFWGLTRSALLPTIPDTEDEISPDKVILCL
Sequence of DOT1L:CRBN (Q16531 whole entry partner, species assumed): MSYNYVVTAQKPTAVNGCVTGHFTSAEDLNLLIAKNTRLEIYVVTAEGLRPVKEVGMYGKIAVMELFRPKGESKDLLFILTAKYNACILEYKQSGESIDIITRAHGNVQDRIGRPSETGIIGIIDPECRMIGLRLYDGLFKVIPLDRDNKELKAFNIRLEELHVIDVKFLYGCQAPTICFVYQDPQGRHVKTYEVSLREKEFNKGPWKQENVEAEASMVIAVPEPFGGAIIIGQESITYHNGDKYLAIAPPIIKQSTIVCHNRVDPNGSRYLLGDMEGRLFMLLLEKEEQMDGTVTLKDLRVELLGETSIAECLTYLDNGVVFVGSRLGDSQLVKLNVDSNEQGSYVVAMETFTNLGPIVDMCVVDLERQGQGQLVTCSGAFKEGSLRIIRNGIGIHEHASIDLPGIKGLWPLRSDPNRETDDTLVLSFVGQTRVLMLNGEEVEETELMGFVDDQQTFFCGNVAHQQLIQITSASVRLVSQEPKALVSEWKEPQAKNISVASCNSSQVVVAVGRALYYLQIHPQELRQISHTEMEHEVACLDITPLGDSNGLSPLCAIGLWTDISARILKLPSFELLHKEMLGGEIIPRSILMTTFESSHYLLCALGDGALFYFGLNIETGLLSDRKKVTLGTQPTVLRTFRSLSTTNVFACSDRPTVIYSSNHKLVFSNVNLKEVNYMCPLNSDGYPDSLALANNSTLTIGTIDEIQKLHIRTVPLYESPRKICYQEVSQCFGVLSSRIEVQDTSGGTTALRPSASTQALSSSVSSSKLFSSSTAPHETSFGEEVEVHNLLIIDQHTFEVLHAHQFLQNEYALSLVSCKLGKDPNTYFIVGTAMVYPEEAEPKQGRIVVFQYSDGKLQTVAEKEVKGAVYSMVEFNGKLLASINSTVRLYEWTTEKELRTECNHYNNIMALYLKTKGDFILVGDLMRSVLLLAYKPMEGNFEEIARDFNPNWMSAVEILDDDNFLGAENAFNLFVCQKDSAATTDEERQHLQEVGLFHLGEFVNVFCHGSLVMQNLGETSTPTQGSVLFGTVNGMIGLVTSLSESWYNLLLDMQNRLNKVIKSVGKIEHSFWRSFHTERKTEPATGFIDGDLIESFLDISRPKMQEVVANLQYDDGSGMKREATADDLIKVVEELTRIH
Procedure: Example 14: DOT1L:Cereblon (CRBN)-DNA Damage-Binding Protein 1 (DDB1)/DOT1L Dimerization Assay
GST-CRBN-DDB1 and DOT1L (6×HIS-tagged) were both diluted to 125 nM in assay buffer (50 mM 2-[4-(2-Hydroxyethyl)piperazin-1-yl]ethane-1-sulfonic acid (HEPES) pH 7.4, 150 mM NaCl, and 0.01% Tween®, 2, 0.1% bovine serum albumin (BSA)), and 20 μL of protein mixture was added to each well of a 384-well AlphaPlate™ (PerkinElmer®). Compounds were then added at 100 nL per well from DMSO stock plates using a Janus®, Workstation (PerkinElmer®). Following a 1-hour incubation at room temperature, 20 μL Nickel Chelate AlphaLISA® Acceptor and Glutathione AlphaLISA® Donor beads (PerkinElmer®) diluted to 20 ng/μl in assay buffer was added to each well. After a 1-hour incubation at room temperature, luminescence was measured on the Envision® 2104 plate reader (PerkinElmer®). Data were analyzed and plotted using GraphPad PRISM v6 and dimerization amplitude, mean, and s.d. values were determined using the ‘Gaussian’ analysis module.
DOT1L:CRBN dimerization by inventive bifunctional compounds 2, 3, and 6, and pomalidomide and EPZ5676 was assessed by AlphaScreen® assay.

EOL1 cells = experiment: Cell proliferation assay in EOL1 cells (trypan blue cell counts); format: cell-based, human; conditions: FIG. 3, 4B, 6B, 7, 8, 9B
Procedure: Example 15: Cell Proliferation Assays in EOL1 (Human Eosinophilic Leukaemia) Cells with Inventive Bifunctional Compounds
as §1, with “EOL1” for “MV411”

DOT1L [2] = biological target: T1, DOT1L; experiment: DOT1L fluorescence polarization (FP) displacement assay; format: binding; conditions: FIG. 1
Procedure: Example 13: Cellular Disruptor of Telomeric Silencing 1-Like (DOT1L) Fluorescence Polarization (FP) Displacement Assay
DOT1L FP displacement assays were conducted with inventive bifunctional compounds 2, 3, and 6, and pomalidomide and positive control EPZ5676 at different concentrations [M], measured in [M] per mP.
Target sequence in this assay (Q8TEK3 whole entry, species assumed): as the sequence (Q8TEK3 whole entry) above

THP1 cells = experiment: Cell proliferation assay in THP1 cells (trypan blue cell counts); format: cell-based; conditions: FIG. 12
Procedure: Example 18: Cell Proliferation Assays in THP1 (Acute Monocytic Leukemia) Cells with Inventive Bifunctional Compounds
as §1, with “THP1” for “MV411”

SEMK2 cells = experiment: Cell proliferation assay in SEMK2 cells (trypan blue cell counts); format: cell-based; conditions: FIG. 11
Procedure: Example 17: Cell Proliferation Assays in SEMK2 (B Acute Lymphoblastic Leukemia) Cells with Inventive Bifunctional Compounds
as §1, with “SEMK2” for “MV411”

DOT1L [3] = biological target: T1, DOT1L; experiment: Western blot of DOT1L degradation in EOL1 cells; format: cell-based; parameters: degraded DOT1L in EOL1 cells; endogenous in cells; host or cells: EOL1; conditions: FIG. 4A, 6A, 9A
Target sequence in this assay (Q8TEK3 whole entry): as above

Row | Structure (SMILES) | MV411 cell viability (MV411 cells) | DOT1L degradation in MV411 cells (DOT1L [1]) | formation of ternary complexes between DOT1L and CRBN (DOT1L:CRBN) | EOL1 cell viability (EOL1 cells) | DOT1L binding via displacement of FITC-probe in FP assay (DOT1L [2]) | THP1 cell viability (THP1 cells) | SEMK2 cell viability (SEMK2 cells) | DOT1L degradation in EOL1 cells (DOT1L [3])
1 | CC(C)N(CCCNC(=O)Nc1ccc(C(C)(C)C)cc1)C[C@H]1O[C@H](n2cnc3c(NCCCCNC(=O)CCCCCCCCCCCCCCCNc4cccc5c4C(=O)N(C4CCC(=O)NC4=O)C5=O)ncnc32)[C@H](O)[C@@H]1O (stereo partly drawn) [Compound 6, N-(4-((9-((2S,3R,4S,5R)-5-(((3-(3-(4-(tert-butyl)phenyl)ureido)propyl)(isopropyl)amino)methyl)-3,4-dihydroxytetrahydrofuran-2-yl)-9H-purin-6-yl)amino)butyl)-16-((2-(2,6-dioxopiperidin-3-yl)-1,3-dioxoisoindolin-4-yl)amino)hexadecanamide] | reduced MV411 cell viability in a dose dependent manner and at early time points | degraded DOT1L in MV411 cells and in a dose dependent manner up to 5.0 μM | induced the formation of ternary complexes between the DOT1L and CRBN | reduced EOL1 cell viability in a dose dependent manner and at early time points | bound DOT1L via displacement of fluorescein isothiocyanate (FITC)-probe in FP assay | reduced THP1 cell viability in a dose dependent manner and at early time points | reduced SEMK2 cell viability in a dose dependent manner and at early time points | degraded DOT1L in EOL1 cells and in a dose dependent manner up to 5.0 μM
2 | CC(C)N(C[C@H]1O[C@@H](n2cnc3c(NCCCCNC(=O)CCCCCCCCCCCCCCCNc4cccc5c4C(=O)N(C4CCC(=O)NC4=O)C5=O)ncnc32)[C@H](O)[C@@H]1O)C1CC(CCc2nc3cc(C(C)(C)C)ccc3[nH]2)C1 (stereo partly drawn) [Compound 2, N-(4-((9-((2R,3R,4S,5R)-5-((3-(2-(5-(tert-butyl)-1H-benzo[d]imidazol-2-yl)ethyl)cyclobutyl)(isopropyl)amino)methyl)-3,4-dihydroxytetrahydrofuran-2-yl)-9H-purin-6-yl)amino)butyl)-16-((2-(2,6-dioxopiperidin-3-yl)-1,3-dioxoisoindolin-4-ylamino)hexadecanamide] | reduced MV411 cell viability in a dose dependent manner and at early time points | degraded DOT1L in MV411 cells and in a dose dependent manner up to 10.0 μM | induced the formation of ternary complexes between the DOT1L and CRBN | reduced EOL1 cell viability in a dose dependent manner and at early time points | bound DOT1L via displacement of fluorescein isothiocyanate (FITC)-probe in FP assay | – | – | degraded DOT1L in EOL1 cells and in a dose dependent manner up to 2.5 μM
3 | CC(C)N(C[C@H]1O[C@@H](n2ccc3c(NCCCCNC(=O)CCCCCCCCCCCCCCCNc4cccc5c4C(=O)N(C4CCC(=O)NC4=O)C5=O)ncnc32)[C@H](O)[C@@H]1O)C1CC(CCc2nc3cc(C(C)(C)C)ccc3[nH]2)C1 (stereo partly drawn) [Compound 5, N-(4-((7-((2R,3R,4S,5R)-5-(((3-(2-(5-(tert-butyl)-1H-benzo[d]imidazol-2-yl)ethyl)cyclobutyl)(isopropyl)amino)methyl)-3,4-dihydroxytetrahydrofuran-2-yl)-7H-pyrrolo[2,3-d]pyrimidin-4-yl)amino)butyl)-16-((2-(2,6-dioxopiperidin-3-yl)-1,3-dioxoisoindolin-4-yl)amino)hexadecanamide] | – | – | – | did not reduce EOL1 cell viability in a dose dependent manner and at early time points | – | – | – | –
4 | CC(C)N(C[C@H]1O[C@@H](n2cnc3c(NCCCCNC(=O)CCCCCCCCCCCCCCCNc4cccc5c4C(=O)N(C4CCC(=O)NC4=O)C5=O)ncnc32)[C@H](O)[C@@H]1O)C1CC(CCc2nc3cc(C(C)(C)C)ccc3[nH]2)C1 (some centres unmarked) [Compound 3] | – | – | induced the formation of ternary complexes between the DOT1L and CRBN | reduced EOL1 cell viability in a dose dependent manner and at early time points | bound DOT1L via displacement of fluorescein isothiocyanate (FITC)-probe in FP assay | – | – | degraded DOT1L in EOL1 cells and in a dose dependent manner up to 5.0 μM
5 | Cc1ncsc1-c1ccc(CNC(=O)[C@H]2C[C@H](O)CN2C(=O)[C@H](NC(=O)CCCCCCCNC(=O)CCCC(=O)NCCCCNc2ncnc3c2ncn3[C@@H]2O[C@H](CN(C(C)C)C3CC(CCc4nc5cc(C(C)(C)C)ccc5[nH]4)C3)[C@@H](O)[C@H]2O)C(C)(C)C)cc1 (stereo partly drawn) [Compound 4, N1-(4-((9-((2R,3R,4S,5R)-5-(((3-(2-(5-(tert-butyl)-1H-benzo[d]imidazol-2-yl)ethyl)cyclobutyl)(isopropyl)amino)methyl)-3,4-dihydroxytetrahydrofuran-2-yl)-9H-purin-6-yl)amino)butyl)-N5-(8-(((R)-1-((2R,4S)-4-hydroxy-2-((4-(4-methylthiazol-5-yl)benzyl)carbamoyl)pyrrolidin-1-yl)-3,3-dimethyl-1-oxobutan-2-yl)amino)-8-oxooctyl)glutaramide] | – | – | – | did not reduce EOL1 cell viability in a dose dependent manner | – | – | – | –
